# From US10265329B2, “Altering steroid metabolism for treatment of steroid-dependent disease” (THE CLEVELAND CLINIC FOUNDATION, priority 2015, dated 2019)
# How the values were obtained:
# [1] = Phase II clinical trial NCT01393730: serum Abi metabolites before and after dutasteride; format: in vivo, human; details: for mean serum concentration, cycle 3: Abi acetate 1000 mg daily plus prednisone alone; for mean serum concentration, cycle 3 / mean serum concentration, cycle 4: 16 patients; for mean serum concentration, cycle 4: after addition of dutasteride 3.5 mg once daily
# Method: Twelve patients with CRPC undergoing treatment with Abi acetate at Cleveland Clinic were consented under an Institutional Review Board—approved protocol (Case 7813). Blood was collected using Vacutainer Plus serum blood collection tubes (#BD367814, Becton Dickenson, Franklin Lakes, N.J.), between 1 and 16 hours after the 1000 mg daily dose of Abi acetate was administered, and allowed to clot. Tubes were centrifuged at 2500 RPM or 1430×g for 10 minutes. Serum aliquots were frozen at −80° C. until processing. To study the effect of dutasteride on Abi metabolism, serum samples were collected from patients treated on a phase II clinical trial at Dana-Farber Cancer Institute (NCT01393730). Each patient received Abi acetate (1,000 mg daily) plus prednisone (5 mg daily) for 2 cycles (8 weeks) and then additional treatment with dutasteride ([…]) was initiated. Samples were collected on treatment with Abi alone and after addition of dutasteride (start of cycles 3, 4 and 7). Seventeen patients treated at this institution on this clinical trial had blood available from all 3 time points. One patient had Abi concentrations that were under the limit of detection and was later determine to have stopped treatment because of adverse effects and was therefore not included in the analysis. Drug metabolites and internal standard (d4-abiraterone, Toronto Research Chemicals Inc, Ontario Canada) were extracted from 100 μL of patient serum with methyl tert-butyl ether (Sigma Aldrich, St. Louis, Mo.), evaporated under a stream of nitrogen gas and reconstituted in methanol:water (50:50) prior to mass spectrometry analysis. Standard curves were generated using human serum spiked with known concentrations of each metabolite to enable determination of unknown concentrations in patient samples
# Samples were analyzed on a ultra high-performance liquid chromatography station (Shimadzu, Kyoto, Japan) with a DGU-20A3R degasser, 2 LC-30AD pumps, a SIL-30AC autosampler, a CTO-10A column oven and a CBM-20A system controller in tandem with a QTRAP 5500 mass spectrometer (AB Sciex, Framingham, Mass.). Drug metabolites were ionized using electrospray ionization in positive ion mode. Multiple reaction monitoring was used to follow mass transitions for Abi, IS, and the metabolites (Table 1). Due to the similarity in structure and mass transitions for the metabolites it was necessary to separate them with chromatography. Separation of drug metabolites was achieved using a mobile phase consisting of LC-MS grade (Fisher) methanol: acetonitrile: water:formic acid (39:26:34:1) at a flow rate of 0.2 ml/min., and C18 analytical column; Zorbax Eclipse plus 150×2.1 mm, 3.5 μm (Agilent, Santa Clara, Calif.).
# [2] = system: VCaP CRPC xenografts; assay: VCaP CRPC xenograft growth under 5α-reduced Abi metabolites; format: in vivo; details: orchiectomized mice; i.p. daily up to 20 days; >30% growth
# Method: Male NSG mice, 6 to 8 weeks of age were obtained from the Cleveland Clinic Biological Resources Unit facility. All mouse studies were conducted under a protocol approved by the Cleveland Clinic Institutional Animal Care and Use Committee. 10^7 VCaP cells were injected subcutaneously with matrigel. […] Control groups were administered 0.15 mL 5% benzyl alcohol and 95% safflower oil solution via intraperitoneal injection every day. Tumor volume was measured every other day, and time to increase in tumor volume by 30% was determined (2 sequential increases). Mice were sacrificed at treatment day 20. The significance of the difference between treatment groups was assessed by Kaplan-Meier survival analysis using a log-rank test in SigmaStat 3.5.
# [3] = system: androgen-responsive gene expression (PSA); assay: Stimulation of androgen-responsive gene expression by Abi metabolites (qPCR); format: cell-based, human; details: LAPC4 and LNCaP
# Method: Cells were starved with phenol red-free and serum free-medium for at least 48 h before treatment with the indicated drugs and/or androgens. RNA extraction and cDNA synthesis were performed with the GenElute Mammalian Total RNA miniprep kit (Sigma-Aldrich) and iScript cDNA Synthesis Kit (Bio-Rad, Hercules, Calif.) respectively. Quantitative PCR (qPCR) analysis was conducted in triplicate in an ABI 7500 Real-Time PCR machine (Applied Biosystems) using iTaq Fast SYBR Green Supermix with ROX (Bio-Rad) and primers for TMPRSS2, PSA and RPLPO, as described. Chang et al., Cell 154, 1074-1084 (2013). Accurate quantitation of each mRNA was achieved by normalizing the sample values to RPLPO and to vehicle-treated cells. 50 μg cell lysate was used for immunoblot with rabbit anti-SRD5A1 (Abnova) and mouse anti-β-actin (Sigma-Aldrich) antibodies.
Structure (SMILES),"mean serum concentration, cycle 3 [1] [nM]","mean serum concentration, cycle 4 [1] [nM]",progression-free survival compared to control xenografts [2],induction of androgen-responsive gene expression [3],decline in mean serum concentration after the addition of dutasteride ([1]; cycle 3 vs. cycle 4) [%]
"C[C@]12CCC(=O)C=C1CC[C@@H]1[C@@H]2CC[C@]2(C)C(c3cccnc3)=CC[C@@H]12 [Compound D4A, 17-(3-Pyridyl)androsta-4,16-dien-3-one]",9.9,18.2,,,
"C[C@]12CCC(=O)C[C@@H]1CC[C@@H]1[C@@H]2CC[C@]2(C)C(c3cccnc3)=CC[C@@H]12 [Compound 5α-Abi, 17-(3-pyridyl)-5α-androsta-16-ene-3-one]",25.8,2.9,significantly shortened progression-free survival,results in expression of androgen-responsive genes,
"C[C@]12CC[C@@H](O)C[C@@H]1CC[C@@H]1[C@@H]2CC[C@]2(C)C(c3cccnc3)=CC[C@@H]12 [Compound 3α-OH-5α-Abi, 17-(3-pyridyl)-5α-androsta-16-ene-3α-ol]",,,no detectable effect,A lower level of induction,92
